Measured values: US7910362B2, “Reporter vector for use in evaluation of CYP1A2 induction” (Eisai R&D Management Co., Ltd., priority 2005, dated 2011)

Assays:
[1] = system: transcriptional regulatory region of human CYP1A1 and CYP1A2; experiment: Reporter assay in HepG2 cells with dual reporter vectors, reporter (SEAP/Luc) not distinguished in the statement; settings: for enhancement of expression of the reporter: reporter vector T (comprises XRE E8, lacks 1535 to 2866); for induction of expression of the reporter: reporter vector U (does not comprise XRE E8); for reporter activities compared with DMSO: reporter vectors E1 to E5 (each one XRE deleted), E3 slightly lower; for enhancement of the expression of the reporter: reporter vectors comprising nucleotide numbers 1535 to 2867 in SEQ ID NO: 1 (XREs densely exist), HepG2
Description: (§1) Each of the obtained reporter vector comprising the transcriptional regulatory region of human CYP1A1 and CYP1A2 and reporter vectors comprising the transcriptional regulatory region partially deleted was transiently expressed in HepG2 cells (purchased from RIKEN) by using a transfection reagent (FuGene6, Roche), and 40 hours after the addition of a drug dissolved in DMSO or DMSO alone, the activity of a secreted alkaline phosphatase (SEAP), which reflects CYP1A2, and the activity of a luciferase (Luc), which reflects CYP1A1, were measured. LumiPhos 530 (Lumigen Inc.) was used as a substrate for the measurement of the SEAP activity.
A reporter assay was performed by using the obtained vectors.

human CYP1A1 = experiment: Reporter assay in HepG2 cells: luciferase (Luc) activity, which reflects CYP1A1; settings: reporter vectors A to J, N, O, T and U, 40 hours after addition, 3-MC 1 μM, BNF 10 μM
Description: Each of the obtained reporter vector comprising the transcriptional regulatory region of human CYP1A1 and CYP1A2 and reporter vectors comprising the transcriptional regulatory region partially deleted was transiently expressed in HepG2 cells (purchased from RIKEN) by using a transfection reagent (FuGene6, Roche), and 40 hours after the addition of a drug dissolved in DMSO or DMSO alone, the activity of a secreted alkaline phosphatase (SEAP), which reflects CYP1A2, and the activity of a luciferase (Luc), which reflects CYP1A1, were measured. LumiPhos 530 (Lumigen Inc.) was used as a substrate for the measurement of the SEAP activity. The Luc activity was measured by using Luciferase Assay System (Promega) (FIG. 3).
(§2) In the same manner as that in 4, each of the expression vectors A to J, N, O, T and U was transiently expressed in HepG2 cells by using the transfection reagent, and 40 hours after the addition of a drug dissolved in DMSO or DMSO alone, activity of a secreted alkaline phosphatase (SEAP), which reflects CYP1A2, and activity of a luciferase (Luc), which reflects CYP1A1, were measured.

human CYP1A2 = experiment: Reporter assay in HepG2 cells: secreted alkaline phosphatase (SEAP) activity, which reflects CYP1A2; format: cell-based; settings: for reporter activity (SEAP) compared with DMSO: expression vector K, L or P (only region neighboring CYP1A2); for reporter activity (SEAP) compared with DMSO / reporter activity (SEAP): 40 hours; for reporter activity (SEAP): expression vector M; for SEAP activity compared with the group where DMSO alone was added: reporter vectors A to J, N, O, T and U, 40 hours after addition, 3-MC 1 μM, BNF 10 μM
Description: as §1
In the same manner as that in 4, the expression vectors K to M and P to S obtained above were transiently expressed in HepG2 cells by using the gene transfer reagent, and 40 hours after the addition of a drug dissolved in DMSO or DMSO alone, activity of a secreted alkaline phosphatase (SEAP) was measured (FIG. 5).
as §2

Compound | enhancement of expression of the reporter [1] | induction of expression of the reporter [1] | reporter activities compared with DMSO [1] | enhancement of the expression of the reporter [1] | Luc activity compared with the group where DMSO alone was added (human CYP1A1) | reporter activity (SEAP) compared with DMSO (human CYP1A2) [fold] | reporter activity (SEAP) (human CYP1A2) | SEAP activity compared with the group where DMSO alone was added (human CYP1A2)
O=c1cc(-c2ccccc2)oc2ccc3ccccc3c12 [BNF, β-naphthoflavone] | strong enhancement of expression | did not show the induction | several folds to 10 or more folds higher | intense enhancement of the expression | increase in the SEAP activity and Luc activity was observed | ~1 | at the background level | increase in the SEAP activity and Luc activity was observed
Cc1ccc2cc3c(ccc4ccccc43)c3c2c1CC3 [3-MC, 3-methylcholanthrene] | strong enhancement of expression | did not show the induction | several folds to 10 or more folds higher | intense enhancement of the expression | increase in the SEAP activity and Luc activity was observed | ~1 | at the background level | increase in the SEAP activity and Luc activity was observed
COc1ccc2[nH]c([S+]([O-])Cc3ncc(C)c(OC)c3C)nc2c1 (centres unmarked) [omeprazole] | – | – | several folds to 10 or more folds higher | – | – | – | – | –
